Data reported in patent US7122668B2, “Platinum complexes and their use in therapy” (priority 2002, dated 2006).
Where two headings read alike, the source gives them in different places.

Columns and labels:
C-26 cells [1] = assay: Platinum complex intracellular accumulation (FAAS); assay type: cell-based, human; conditions: C-26, 24 hr
Description: (§1) Cells were seeded for 48 hr before one of the complexes was added to the culture medium. After 24 hr of exposure, the complexes were removed and the cells washed twice with ice-cold PBS and pelleted. The cells (1*10^6) were dried and mineralized by heating for 10 min in 65% HNO3 (BDH, England)^(22). Samples were dissolved in de-ionized water and each sample was measured at two different dilutions by flameless Zeeman atomic absorption spectrometer (FAAS). The calibration curves included 5 standards of K2PtCl4 stock solution with concentrations ranging from 50 to 250 ng platinum per ml. Platinum content was expressed as picomoles platinum per 1*10^6 cells.
(§2) The Pt content associated with the cells was measured by Atomic Absorption Spectroscopy (AAS).

OV-1063 cells [2] = assay: Platinum complex intracellular accumulation (FAAS); assay type: cell-based, human; conditions: OV-1063, 24 hr
Description: as §1, §2

41M = assay: Microculture tetrazolium (MTS) cell survival assay; assay type: cell-based; conditions: 24 hours incubation
Description: (§3) Cytotoxicity of the synthesized complexes was also tested by the MTS method^(21). Accordingly, the compounds were incubated for 24 hours with the corresponding cell lines and the cell survival in compound-treated cultures was evaluated.
(§4) The complexes were incubated for 24 hours with the above mentioned cell lines and the cell survival in compound-treated cultures was evaluated by the (microculture tetrazolium) MTS method as previously reported.

A2780 = assay: Microculture tetrazolium (MTS) cell survival assay; assay type: cell-based; conditions: 24 hours incubation
Description: as §3, §4

CH1 = assay: Microculture tetrazolium (MTS) cell survival assay; assay type: cell-based; conditions: 24 hours incubation
Description: as §3, §4

CH1cisR = assay: Microculture tetrazolium (MTS) cell survival assay; assay type: cell-based; conditions: for IC50: 24 hours incubation, MTS; for resistance factor (IC50 resistant/IC50 sensitive): CH1cisR/CH1
Description: as §3, §4

41McisR = assay: Microculture tetrazolium (MTS) cell survival assay; assay type: cell-based; conditions: for resistance factor (IC50 resistant/IC50 sensitive): 41McisR/41M; for IC50: 24 hours incubation, MTS
Description: as §3, §4

A2780cisR = assay: Microculture tetrazolium (MTS) cell survival assay; assay type: cell-based; conditions: for IC50: 24 hours incubation, MTS; for resistance factor (IC50 resistant/IC50 sensitive): A2780cisR/A2780
Description: as §3, §4

calf thymus DNA = assay: DNA binding (calf thymus DNA platination); conditions: for t1/2 half time of the binding to calf thymus DNA: 10 mM NaClO4, 37° C., ri = 0.08, differential pulse polarography; for ΔΔεmax, maximum of the positive CD band at around 275 nm: difference between control and platinated DNA
Description: The formation of calf thymus DNA platination was also examined. To this end, calf thymus DNA was incubated with different compounds (Table 3) in which the following parameters were determined: […]

[3] = tested on: caspase-3 in OV-1063 cells; assay: EnzChek Caspase-3 assay; assay type: cell-based, human
Excerpt: (§5) (2) By the EnzChektm Caspase-3 Assay Kit (Molecular probes, Eugene, Oreg.). This Kit allows the detection of apoptosis by assaying for increases in caspase-3 and other DEVD-specific protease activities (e.g., caspase-7). The basis for the assay is rodamine 110 bis-(N-CBZ-aspartil-L-glutarnyl-L-valyl-aspartic acid amide) (Z-DEVD-R110). This substrate is a bisamide derivative of rhodamine 110(R110) containing DEVD peptides covalently linked to each of R110's amino groups. Upon enzymatic cleavage, the non-fluorescent bisamide substrate converted to the fluorescent R110, which can be quantified by fluorescence microplate reader using excitation at 485±10 nm and emission detection at 535±10 nm.
(§6) (12) (5 μM and 7.5 μM, respectively) for 5 or 16 hr. Both “induced” and “control” cells were then harvested and lysed. Enzyme reactions were performed in 96-well plates with 50 μg of cytosolic proteins (55 minutes of incubation) and with a final concentration of 25 μM Z-DEVD-R110 substrate as described in the kit protocol.

C-26 cells [4] = assay: Determination of Pt-DNA adducts by FAAS; assay type: cell-based, human; conditions: for Pt-DNA adducts: C-26, 24 hr
Description: (§7) Cells were seeded for 48 hr before one of the drugs was added to the culture medium. After 24 hr of exposure, the complexes were removed and the cells washed twice with ice-cold PBS and pelleted. DNA from platinum-containing material (2*10^6 cells) was extracted from the cell pellet by QIAamp DNA Blood Kit (QIAGEN, Germany) according to the manufacture instructions. DNA yield was determined by measuring the concentration of DNA in the eluate by absorbance at 260 nm.

OV-1063 cells [5] = assay: Determination of Pt-DNA adducts by FAAS; assay type: cell-based, human; conditions: for Pt-DNA adducts: OV-1063, 24 hr
Description: as §7

plasmid pS16-hGH DNA = assay: Determination of Pt-DNA adducts by EtBr fluorescence; assay type: binding; conditions: DNA modified 24 hr
Description: A plasmid (4.8 kbp) containing a gene coding for human growth hormone, plasmid pS16-hGH, was prepared as previously described^(23). The freshly prepared DNA was analyzed by agarose gel (1%) electrophoresis using post-staining with SYBR Green I fluorescent dye (Molecular Probes, Eugene, Oreg.). […] The ratio of absorbance at 260 nm to that at 280 nm was always between 1.8 and 1.9.
DNA were modified by the platinum complexes in 10 mM NaClO4 (pH 7.0) at 37° C. in the dark for 24 hr. Measurements of EtBr fluorescence were performed on an LS50B luminescence spectrometer (Perkin Elmer, Norwalk, Conn.). Fluorescence measurements of DNA modified by platinum in the presence of EtBr were performed using the excitation wavelength of 546 nm (slit 10 run) and emission wavelength of 590 nm (slit 10 nm) at 25° C. The concentrations were 0.01 mg/ml for DNA and 0.04 mg/ml for EtBr, which corresponded to the saturation of all intercalation sites of EtBr in DNA.
EtBr, as the fluorescent probe, was used to distinguish between perturbations induced in DNA by adducts of platinum (II) compounds^(14). Binding of EtBr by intercalation is blocked in a stoichiometric manner by formation of the bifunctional adducts, as of Cis-Pt, which results in a loss of fluorescence intensity. On the other hand, formation of monofunctional adducts results only in a slight decrease of EtBr fluorescence.

OV-1063 cells [6] = assay: Methylene blue (MB) assay of cell survival; assay type: cell-based, human; conditions: mean ± SD
Description: (§8) A human ovarian carcinoma cell line (OV-1063), established at the Hadassah University hospital and human colon carcinoma cell line (C-26) were maintained in RPMI-1640 medium supplemented with 10% FCS, antibiotics and glutamine. All culture medium components were purchased from Biological Industries (Beit-HaEmek, Israel). Both cell lines were maintained at 37° C. in a water-jacketed CO2 incubator.
(§9) Cytotoxicity of the synthesized complexes was tested by the methylene blue (MB) staining assay^(19). A fixed number of exponentially growing cells in 200 μl medium were plated in 96-microwell, flat-bottomed plates. For each of the complexes tested, 4 well were used. Following 24 hr in culture, 20 μl of different concentration of the complexes were added to each well containing untreated cells. Normal saline was added to the controls. Cells were exposed to complexes for 4, 24, or 72 hr. At the end of exposure for a fixed time interval, the treated cells as well as parallel control cells were washed and incubation was continued in fresh medium until termination of the experiment. Following 72 hr of growth, cells were fixed by adding 50 μl of 2.5% of glutaraldehyde to each well for 15 min. Fixed cells were rinsed 10 times with fresh de-ionized water and once with borate buffer (0.1 M, pH=8.5), dried and stained with MB (100 μl of 1% solution in 0.1 M borate buffer, pH=8.5) for 1 hr at room temperature. Stained cells were rinsed thoroughly with de-ionized water to remove any non-cell-bound die and then dried. The MB bound to the fixed cells was extracted by incubation at 37° C. with 200 μl of 0.1N HCl for 1 hr, and the net optical density (OD) of the die in each well was determined by a plate spectrophotometer (Labsystems Multyskan BICHROMATIC, Finland) at 620 nm.

caspase-3 in C-26 cells = assay: EnzChek Caspase-3 assay; assay type: cell-based, human; conditions: 4.5 μM complex, cisplatin 1.5 μM, 5 or 16 hrs
Excerpt: as §5, §6

C-26 cells [7] = assay type: cell-based; conditions: C-26 cells, mean ± SD
Description: as §8, §9

C-26 colon carcinoma = assay: In vivo antitumor efficacy; design: species or system BALB/C mice; conditions: 5 mg/kg, three injections at weekly intervals from day 3 after i.p. tumor inoculation
Description: Female BALB/C mice (in the weight range of 17–20 g) were injected i.p. with 1*10^6 C-26 colon carcinomas.
Treatment began at day 3 after tumor inoculation and was repeated twice for a total of three injections at weekly intervals.
Female BALB/C mice (in the weight range of 17–20 gr) were injected i.p. with 1*10^6 C-26 colon carcinomas.
Treatment was as performed according to the schedule described above.

[8] = 4 h exposure, read-out: IC50, 4 h
[9] = 24 h exposure, read-out: IC50, 24 h
[10] = 72 h exposure, read-out: IC50, 72 h

Trans-[PtCl2(4-picoline)(piperazine)].HCl [Complex 13]
Penetration to cells (C-26 cells [1]): 54461 pmol Pt/1 * 10^6 cells
Penetration to cells (OV-1063 cells [2]): 12307 pmol Pt/1 * 10^6 cells
IC50 (41M): 45 ± 3 µM
IC50 (A2780): 10 ± 3 µM
IC50 (CH1): 16 ± 2 µM
IC50 (CH1cisR): 42 ± 3 µM
resistance factor (IC50 resistant/IC50 sensitive) (CH1cisR): 2.6
resistance factor (IC50 resistant/IC50 sensitive) (41McisR): 3.3
IC50 (41McisR): 147 ± 10 µM
IC50 (A2780cisR): 24 ± 3 µM
resistance factor (IC50 resistant/IC50 sensitive) (A2780cisR): 2.4
% IEC/adduct, frequency of interstrand crosslinks (calf thymus DNA): 6%
unwinding angle per adduct (calf thymus DNA): 17°
ΔTm, 0.01M Na+ (calf thymus DNA): +4.7 0.C
t1/2 half time of the binding to calf thymus DNA (calf thymus DNA): 0.2 h
ΔTm, 0.2 M (calf thymus DNA; rb = 0.05): −3.5 0.C
ΔΔεmax, maximum of the positive CD band at around 275 nm (calf thymus DNA; rb = 0.05): −0.30
caspase-3 activation, increase in fluorescence vs untreated cells ([3]; 5 hr, 6.5 μM piperidine complex or 7.5 μM piperazine complex): ~2 fold
caspase-3 activation, increase in fluorescence vs untreated cells ([3]; 16 hr): 3 fold
Pt-DNA adducts (C-26 cells [4]): 297 pmol Pt/50 μg DNA
DNA platination relative to Cis-Pt (C-26 cells [4]; C-26 cells): 7 fold
Pt-DNA adducts (OV-1063 cells [5]): 205 pmol Pt/50 μg DNA
DNA platination relative to Cis-Pt (OV-1063 cells [5]; OV-1063 cells): 7 fold
decrease of EtBr fluorescence intensity by DNA adducts (plasmid pS16-hGH DNA): considerable decrease in fluorescence

N.N.[Cl][Pt][Cl] [Cisplatin, cis-[PtCl2(NH3)2], reference compound]
Penetration to cells (C-26 cells [1]): 2244 pmol Pt/1 * 10^6 cells
Penetration to cells (OV-1063 cells [2]): 194 pmol Pt/1 * 10^6 cells
IC50 (OV-1063 cells [6]; [8]): 2 ± 0.5 µM
IC50 (OV-1063 cells [6]; [9]): 0.7 ± 0.2 µM
IC50 (OV-1063 cells [6]; [10]): 0.5 ± 0.2 µM
IC50 (41M): 26 µM
IC50 (A2780): 2.2 µM
IC50 (CH1): 6 µM
IC50 (CH1cisR): 23 µM
resistance factor (IC50 resistant/IC50 sensitive) (CH1cisR): 3.8
resistance factor (IC50 resistant/IC50 sensitive) (41McisR): 4.1
IC50 (41McisR): 107 µM
IC50 (A2780cisR): 38 µM
resistance factor (IC50 resistant/IC50 sensitive) (A2780cisR): 17.3
% IEC/adduct, frequency of interstrand crosslinks (calf thymus DNA): 6%
unwinding angle per adduct (calf thymus DNA): 13°
t1/2 half time of the binding to calf thymus DNA (calf thymus DNA): 1.67 h
ΔTm, 0.01M Na+ (calf thymus DNA; rb = 0.05, 0.01M Na+): −2.6 0.C
ΔTm, 0.2 M (calf thymus DNA; rb = 0.05): −4.0 0.C
ΔΔεmax, maximum of the positive CD band at around 275 nm (calf thymus DNA; rb = 0.05): 1.27
caspase-3 fluorescent signal (caspase-3 in C-26 cells): No fluorescent signal
caspase-3 fluorescent signal ([3]; cisplatin 2 μM, 5 or 16 hrs): No fluorescent signal
Pt-DNA adducts (C-26 cells [4]): 149 pmol Pt/50 μg DNA
Pt-DNA adducts (OV-1063 cells [5]): 107 pmol Pt/50 μg DNA
IC50 (C-26 cells [7]; [8]): 1.5 ± 1.3 µM
IC50 (C-26 cells [7]; [9]): 0.6 ± 0.1 µM
IC50 (C-26 cells [7]; [10]): 0.2 ± 0.2 µM
Increase in life span (C-26 colon carcinoma): 108%
Survival (C-26 colon carcinoma): 24 ± 5 days

N.N.[Cl][Pt+2][Cl] [Transplatin, trans-[PtCl2(NH3)2], reference compound]
Penetration to cells (C-26 cells [1]): 384 pmol Pt/1 * 10^6 cells
Penetration to cells (OV-1063 cells [2]): 474 pmol Pt/1 * 10^6 cells
IC50 (OV-1063 cells [6]; [8]): 81 ± 4.3 µM
IC50 (OV-1063 cells [6]; [9]): 73 ± 5.1 µM
IC50 (OV-1063 cells [6]; [10]): 52 ± 3.2 µM
IC50 (41M): > 200 µM
IC50 (A2780): > 200 µM
IC50 (CH1): > 200 µM
IC50 (CH1cisR): > 200 µM
IC50 (41McisR): > 200 µM
IC50 (A2780cisR): > 200 µM
% IEC/adduct, frequency of interstrand crosslinks (calf thymus DNA): 12%
unwinding angle per adduct (calf thymus DNA): 9.4°
t1/2 half time of the binding to calf thymus DNA (calf thymus DNA): 1.67 h
ΔTm, 0.01M Na+ (calf thymus DNA; rb = 0.05, 0.01M Na+): +8.7 0.C
ΔTm, 0.2 M (calf thymus DNA; rb = 0.05): +0.6 0.C
ΔΔεmax, maximum of the positive CD band at around 275 nm (calf thymus DNA; rb = 0.05): −0.34
Pt-DNA adducts (C-26 cells [4]): 0 pmol Pt/50 μg DNA
Pt-DNA adducts (OV-1063 cells [5]): 0 pmol Pt/50 μg DNA
IC50 (C-26 cells [7]; [8]): 64 ± 2 µM
IC50 (C-26 cells [7]; [9]): 46 ± 3.1 µM
IC50 (C-26 cells [7]; [10]): 41 ± 1.7 µM
